From ChEMBL document CHEMBL6078645, “Expanding the Solvent/Protein Region Occupation of the Non-Nucleoside Reverse Transcriptase Inhibitor Binding Pocket for Improved Broad-Spectrum Anti-HIV-1 Efficacy: from Rigid Phenyl-Diarylpyrimidines to Flexible Hydrophilic Piperidine-Diarylpyrimidines” (J Med Chem, 2024)
Values joined by “and” are separate entries in the source; they are usually repeats but may differ in a detail not shown here. Identical values can stand only once.

Key:
[1] = biological target: T1, Human immunodeficiency virus type 1 reverse transcriptase (Human immunodeficiency virus 1, UniProt Q72547); test: Inhibition of HIV-1 reverse transcriptase
[2] = system: Human immunodeficiency virus 1; test: Antiviral activity against HIV-1 harboring Y188L mutant infected in human MT4 cells assessed as protection against virus-induced cytopathic effect incubated for 5 days by MTT assay; type: functional, organism-based; details: Human immunodeficiency virus 1, MT4, 120 h
[3] = system: Human immunodeficiency virus 1; test: Antiviral activity against HIV-1 harboring F227L/V106A double mutant infected in human MT4 cells assessed as protection against virus-induced cytopathic effect incubated for 5 days by MTT assay; type: functional, organism-based; details: Human immunodeficiency virus 1, MT4, 120 h
[4] = system: Human immunodeficiency virus 1; test: Antiviral activity against HIV-1 harboring RES056 mutant infected in human MT4 cells assessed as protection against virus-induced cytopathic effect incubated for 5 days by MTT assay; type: functional, organism-based; details: Human immunodeficiency virus 1, MT4, 120 h
[5] = Cytotoxicity against human MT4 cells assessed as reduction in cell viability incubated for 5 days by MTT assay; type: toxicity, cell-based; details: MT4 cells, time 5 day
[6] = Selectivity index, ratio of CC50 for cytotoxicity against human MT4 cells assessed as reduction in cell viability to EC50 for antiviral activity against wild type HIV-1 IIIB infected in human MT4 cells assessed as protection against virus-induced cytopathic effect; type: toxicity, cell-based; details: MT4 cells, read-out: Ratio CC50/EC50
[7] = biological target: T1, Human immunodeficiency virus type 1 reverse transcriptase; test: Inhibition of wildtype recombinant HIV-1 Reverse transcriptase incubated for 40 mins by spectrofluorometric analysis
[8] = system: Human immunodeficiency virus 1; test: Antiviral activity against HIV-1 harboring L100I mutant infected in human MT4 cells assessed as protection against virus-induced cytopathic effect incubated for 5 days by MTT assay; type: functional, organism-based; details: Human immunodeficiency virus 1, MT4, 120 h
[9] = system: Human immunodeficiency virus 1; test: Antiviral activity against HIV-1 harboring K103N mutant infected in human MT4 cells assessed as protection against virus-induced cytopathic effect incubated for 5 days by MTT assay; type: functional, organism-based; details: Human immunodeficiency virus 1, MT4, 120 h
[10] = system: Human immunodeficiency virus 1; test: Antiviral activity against HIV-1 harboring Y181C mutant infected in human MT4 cells assessed as protection against virus-induced cytopathic effect incubated for 5 days by MTT assay; type: functional, organism-based; details: Human immunodeficiency virus 1, MT4, 120 h
[11] = system: Human immunodeficiency virus 1; test: Antiviral activity against HIV-1 harboring E138K mutant infected in human MT4 cells assessed as protection against virus-induced cytopathic effect incubated for 5 days by MTT assay; type: functional, organism-based; details: Human immunodeficiency virus 1, MT4, 120 h

SMILES: Cc1cc(-c2ccc(C#N)cc2)cc(C)c1Oc1nc(NC2CCN(Cc3cccc([N+](=O)[O-])c3)CC2)ncc1CO
- EC50 [1]: 0.009 µM
- EC50 [2]: 0.167 µM
- EC50 [3]: 0.291 µM
- EC50 [4]: 0.646 µM
- CC50 at 120 h [5]: 7.36 µM
- selectivity ratio [6]: 819
- IC50 [7]: 0.184 µM

SMILES: COC(=O)/C=C/c1ccc(CN2CCC(Nc3ncc(CO)c(Oc4c(C)cc(-c5ccc(C#N)cc5)cc4C)n3)CC2)cc1
- EC50 [1]: 0.007 µM
- EC50 [2]: 0.213 µM
- EC50 [3]: 0.329 µM
- EC50 [4]: 0.357 µM
- CC50 at 120 h [5]: 88.3 µM
- selectivity ratio [6]: 13400
- IC50 [7]: 0.437 µM

SMILES: Cc1cc(-c2ccc(C#N)cc2)cc(C)c1Oc1nc(NC2CCN(Cc3ccc(C(F)(F)F)cc3)CC2)ncc1CO
- EC50 [1]: 0.04 µM
- EC50 [2]: 0.701 µM
- EC50 [3]: 1.59 µM
- EC50 [4]: 2.6 µM
- CC50 at 120 h [5]: 5.05 µM
- selectivity ratio [6]: 127

SMILES: COCCNS(=O)(=O)c1ccc(CN2CCC(Nc3ncc(CO)c(Oc4c(C)cc(-c5ccc(C#N)cc5)cc4C)n3)CC2)cc1
- EC50 [1]: 0.006 µM
- EC50 [2]: 0.047 µM
- EC50 [3]: 0.034 µM
- EC50 [4]: 0.045 µM
- CC50 at 120 h [5]: 6.71 µM
- selectivity ratio [6]: 1030
- EC50 [8]: 0.006 µM
- EC50 [9]: 0.007 µM
- EC50 [10]: 0.034 µM
- EC50 [11]: 0.04 µM
- IC50 [7]: 0.575 µM

SMILES: Cc1cc(-c2ccc(C#N)cc2)cc(C)c1Oc1nc(NC2CCN(Cc3ccc(OC(F)(F)F)cc3)CC2)ncc1CO
- EC50 [1]: 0.043 µM
- EC50 [2]: 0.479 µM
- EC50 [3]: 1.08 µM
- EC50 [4]: 1.26 µM
- CC50 at 120 h [5]: 5.96 µM
- selectivity ratio [6]: 140
- IC50 [7]: 0.375 µM and 0.249 µM

SMILES: Cc1cc(-c2ccc(C#N)cc2)cc(C)c1Oc1nc(NC2CCN(Cc3ccc(S(=O)(=O)NCCCO)cc3)CC2)ncc1CO
- EC50 [1]: 0.026 µM
- EC50 [2]: 0.24 µM
- EC50 [3]: 0.114 µM
- EC50 [4]: 0.268 µM
- CC50 at 120 h [5]: 6.32 µM
- selectivity ratio [6]: 247
- IC50 [7]: 0.543 µM

SMILES: Cc1cc(-c2ccc(C#N)cc2)cc(C)c1Oc1nc(NC2CCN(Cc3cccc(C(N)=O)c3)CC2)ncc1CO
- EC50 [1]: 0.008 µM
- EC50 [2]: 0.255 µM
- EC50 [3]: 0.271 µM
- EC50 [4]: 1.21 µM
- CC50 at 120 h [5]: 18.4 µM
- selectivity ratio [6]: 2230
- IC50 [7]: 0.201 µM

SMILES: Cc1cc(-c2ccc(C#N)cc2)cc(C)c1Oc1nc(NC2CCN(Cc3ccc(S(=O)(=O)NCCO)cc3)CC2)ncc1CO
- EC50 [1]: 0.01 µM
- EC50 [2]: 0.228 µM
- EC50 [3]: 0.069 µM
- EC50 [4]: 0.327 µM
- CC50 at 120 h [5]: 15.5 µM
- selectivity ratio [6]: 1630
- IC50 [7]: 0.413 µM

SMILES: Cc1ccc(CN2CCC(Nc3ncc(CO)c(Oc4c(C)cc(-c5ccc(C#N)cc5)cc4C)n3)CC2)cc1
- EC50 [1]: 0.013 µM
- EC50 [2]: 0.237 µM
- EC50 [3]: 0.81 µM
- EC50 [4]: 1.12 µM
- CC50 at 120 h [5]: 3.66 µM
- selectivity ratio [6]: 285
- IC50 [7]: 0.626 µM

SMILES: O=C1Nc2ccc(Cl)cc2[C@@](C#CC2CC2)(C(F)(F)F)O1 [EFAVIRENZ]
- EC50 [4]: 0.579 µM
- CC50 at 120 h [5]: > 6.35 µM
- EC50 [8]: 0.055 µM
- EC50 [10]: 0.008 µM
- EC50 [11]: 0.01 µM

SMILES: Cc1cc(-c2ccncc2)cc(C)c1Oc1nc(NC2CCN(Cc3ccc(C(=O)NCCCO)cc3)CC2)ncc1CO
- IC50 [7]: 0.355 µM

SMILES: Cc1cc(-c2ccc(C#N)cc2)cc(C)c1Oc1nc(NC2CCN(Cc3ccc(C(N)=O)cc3)CC2)ncc1CO
- EC50 [1]: 0.007 µM
- EC50 [2]: 0.156 µM
- EC50 [3]: 0.26 µM
- EC50 [4]: 0.304 µM
- CC50 at 120 h [5]: 21.8 µM
- selectivity ratio [6]: 3200
- IC50 [7]: 0.265 µM

SMILES: Cc1cn([C@H]2C[C@H](N=[N+]=[N-])[C@@H](CO)O2)c(=O)[nH]c1=O [ZIDOVUDINE]
- EC50 [1]: 0.027 µM
- EC50 [2]: 0.015 µM
- EC50 [3]: 0.017 µM
- EC50 [4]: 0.034 µM
- CC50 at 120 h [5]: > 7.49 µM
- selectivity ratio [6]: > 281
- EC50 [9]: 0.029 µM
- EC50 [10]: 0.022 µM
- EC50 [11]: 0.032 µM

SMILES: Cc1cc(-c2ccc(C#N)cc2)cc(C)c1Oc1nc(NC2CCN(Cc3ccc([N+](=O)[O-])cc3)CC2)ncc1CO
- EC50 [1]: 0.008 µM
- EC50 [2]: 0.189 µM
- EC50 [3]: 0.54 µM
- EC50 [4]: 0.306 µM
- CC50 at 120 h [5]: 3.23 µM
- selectivity ratio [6]: 381
- IC50 [7]: 0.202 µM

SMILES: Cc1cc(-c2ccc(C#N)cc2)cc(C)c1Oc1nc(NC2CCN(Cc3ccc(C(=O)NCCO)cc3)CC2)ncc1CO
- EC50 [1]: 0.014 µM
- CC50 at 120 h [5]: 16.3 µM
- selectivity ratio [6]: 1140

SMILES: Cc1cc(-c2ccc(C#N)cc2)cc(C)c1Oc1nc(NC2CCN(Cc3ccc(C#N)cc3)CC2)ncc1CO
- EC50 [1]: 0.007 µM
- EC50 [2]: 0.059 µM
- EC50 [3]: 0.071 µM
- EC50 [4]: 0.294 µM
- CC50 at 120 h [5]: 4.83 µM
- selectivity ratio [6]: 684
- EC50 [8]: 0.009 µM
- EC50 [9]: 0.006 µM
- EC50 [10]: 0.022 µM
- EC50 [11]: 0.021 µM
- IC50 [7]: 0.297 µM

SMILES: CNC(=O)c1cccc(CN2CCC(Nc3ncc(CO)c(Oc4c(C)cc(-c5ccc(C#N)cc5)cc4C)n3)CC2)c1
- EC50 [1]: 0.04 µM
- EC50 [2]: 0.813 µM
- EC50 [3]: 5 µM
- EC50 [4]: 5.63 µM
- CC50 at 120 h [5]: 20.2 µM
- selectivity ratio [6]: 506
- IC50 [7]: 0.305 µM

SMILES: Cc1cc(-c2ccc(C#N)cc2)cc(C)c1Oc1nc(NC2CCN(Cc3ccc(S(C)(=O)=O)cc3)CC2)ncc1CO
- EC50 [1]: 0.008 µM
- EC50 [2]: 0.058 µM
- EC50 [3]: 0.052 µM
- EC50 [4]: 0.163 µM
- CC50 at 120 h [5]: 9.17 µM
- selectivity ratio [6]: 1190
- EC50 [8]: 0.008 µM
- EC50 [9]: 0.018 µM
- EC50 [10]: 0.019 µM
- EC50 [11]: 0.036 µM
- IC50 [7]: 0.27 µM

SMILES: CNC(=O)c1ccc(CN2CCC(Nc3ncc(CO)c(Oc4c(C)cc(-c5ccc(C#N)cc5)cc4C)n3)CC2)cc1
- EC50 [1]: 0.023 µM
- EC50 [2]: 0.551 µM
- EC50 [3]: 1.39 µM
- EC50 [4]: 4.69 µM
- CC50 at 120 h [5]: 28.1 µM
- selectivity ratio [6]: 1250
- IC50 [7]: 0.438 µM

SMILES: Cc1cc(-c2ccc(C#N)cc2)cc(C)c1Oc1nc(NC2CCN(Cc3ccccc3C#N)CC2)ncc1CO
- EC50 [1]: 0.008 µM
- EC50 [2]: 0.2 µM
- EC50 [3]: 0.239 µM
- EC50 [4]: 0.409 µM
- CC50 at 120 h [5]: 5.14 µM
- selectivity ratio [6]: 628
- IC50 [7]: 0.226 µM

SMILES: Cc1cc(-c2ccc(C#N)cc2)cc(C)c1Oc1nc(NC2CCN(Cc3ccc(F)cc3)CC2)ncc1CO
- EC50 [1]: 0.009 µM
- EC50 [2]: 0.283 µM
- EC50 [3]: 0.558 µM
- EC50 [4]: 0.935 µM
- CC50 at 120 h [5]: 5.68 µM
- selectivity ratio [6]: 629

SMILES: COC(=O)c1ccc(CN2CCC(Nc3ncc(CO)c(Oc4c(C)cc(-c5ccc(C#N)cc5)cc4C)n3)CC2)cc1
- EC50 [1]: 0.012 µM
- EC50 [2]: 0.175 µM
- EC50 [3]: 0.175 µM
- EC50 [4]: 0.469 µM
- CC50 at 120 h [5]: 13.9 µM
- selectivity ratio [6]: 1120
- IC50 [7]: 0.377 µM

SMILES: Cc1ccnc2c1NC(=O)c1cccnc1N2C1CC1 [NEVIRAPINE]
- EC50 [2]: 9.31 µM
- EC50 [3]: 6.46 µM
- EC50 [4]: > 15.3 µM
- CC50 at 120 h [5]: > 15.3 µM
- EC50 [8]: 1360 µM
- EC50 [9]: 2.18 µM
- EC50 [10]: 6.92 µM

SMILES: Cc1cc(/C=C/C#N)cc(C)c1Nc1ccnc(Nc2ccc(C#N)cc2)n1 [RILPIVIRINE]
- EC50 [1]: 0.001 µM
- EC50 [8]: 0.002 µM
